Results taken from patent publication US12447153B2, “HER2 mutation inhibitors” (Array BioPharma Inc., priority 2021, dated 2025).

How the values were obtained:
EGFR wild type (EGFR WT) = EGFR wild type (EGFR WT) (Homo sapiens (Human), UniProt P00533); test: Cellular Phosphorylation Assay, Assay 5 (EGF-stimulated EGFR phosphorylation, NIH 3T3 cells); format: cell-based
Method: (§1) NIH 3T3 cells were engineered to express ErbB2 with Exon 20 YVMA insertion (HER2-YVMA (SEQ ID NO: 2); Assay 4) or EGFR wild type (EGFR WT; Assay 5) with constructs obtained from GenScript and grown in DMEM supplemented with 10% fetal bovine serum and 15 μg/ml blasticidin. […] Serially diluted compounds were added to the plates for 1 hour at 37° C./5% CO2. EGFR WT cells were stimulated with 100 ng/ml rEGF for an additional 10 minutes at 37° C./5% CO2.
(§2) After compound incubation, medium was removed from the cells, which were then fixed in 3.7% formaldehyde in PBS at room temperature for 20 minutes. Following a wash with PBS, cells were permeabilized with 100% methanol at room temperature for 10 minutes. Cells were then washed with PBS/0.05% Tween-20 and blocked with Odyssey blocking buffer (LI-COR Biosciences) for at least 1 hour at room temperature. Antibodies to phosphorylated ErbB2 (Y1196, Cell Signaling #6942) or phosphorylated EGFR (Y1068, Cell Signaling #3777) and GAPDH (Millipore #MAB374) were added to the cells in blocking buffer containing 0.05% azide and incubated overnight at 4° C. After washing with PBS/0.05% Tween-20, the cells were incubated with fluorescently labeled secondary anti-rabbit antibody (LiCOR, IRDye 800CW #926-32211) and anti-mouse antibody (Molecular Probes, Alexa Fluor 680 #A21058) for 1 hour at room temperature in the dark. Cells were then washed and analyzed for fluorescence at both wavelengths using the Odyssey Infrared Imaging System (LI-COR Biosciences). Phosphorylated ErbB2 and EGFR signal was normalized to GAPDH signal to generate curves and calculate IC50 values.

EGFR = EGFR (Homo sapiens (Human), UniProt P00533); test: ErbB Enzyme Assay (HTRF KinEASE-TK), Assay 3; format: biochemical
Method: The kinases were incubated with 250 nM TK-substrate biotin (CisBio, part of cat #62TKOPEC) at 1 mM ATP along with test compounds in a buffer consisting of 25 mM HEPES, pH 7.4, 10 mM MgCl2, 0.01% Triton X-100, and 2% DMSO in a volume of 8 μL. […] After 30-minute incubation at 22° C., the reaction was quenched by adding 8 μL of quench solution containing 62.5 nM Sa-XL665 and 0.25×TK-Ab-Cryptate in HTRF detection buffer (all from CisBio, part of cat #62TKOPEC). […] A 4-parameter logistic curve was fit to the POC values as a function of the concentration of compound, and the IC50 value was the point where the best-fit curve crossed 50 POC.

ErbB2 WT = ErbB2 WT (Homo sapiens (Human), UniProt P04626); test: ErbB Enzyme Assay (HTRF KinEASE-TK), Assay 2; format: biochemical; conditions: ErbB2 WT enzyme
Method: The kinases were incubated with 250 nM TK-substrate biotin (CisBio, part of cat #62TKOPEC) at 1 mM ATP along with test compounds in a buffer consisting of 25 mM HEPES, pH 7.4, 10 mM MgCl2, 0.01% Triton X-100, and 2% DMSO in a volume of 8 μL. […] After 30-minute incubation at 22° C., the reaction was quenched by adding 8 μL of quench solution containing 62.5 nM Sa-XL665 and 0.25×TK-Ab-Cryptate in HTRF detection buffer (all from CisBio, part of cat #62TKOPEC).

[1] = biological target: ErbB2 with Exon 20 YVMA insertion (HER2-YVMA) (Homo sapiens (Human), UniProt P04626, INS775YVMA); test: Cellular Phosphorylation Assay, Assay 4 (constitutive ErbB2 phosphorylation, NIH 3T3 cells); format: cell-based; conditions: ErbB2 YVMA phosphorylation
Method: as §1, §2

[2] = EGF-stimulated EGFR WT phosphorylation
[3] = cellular EGFR WT phosphorylation, EGF-stimulated

EGFR, sequence (P00533 25-1210): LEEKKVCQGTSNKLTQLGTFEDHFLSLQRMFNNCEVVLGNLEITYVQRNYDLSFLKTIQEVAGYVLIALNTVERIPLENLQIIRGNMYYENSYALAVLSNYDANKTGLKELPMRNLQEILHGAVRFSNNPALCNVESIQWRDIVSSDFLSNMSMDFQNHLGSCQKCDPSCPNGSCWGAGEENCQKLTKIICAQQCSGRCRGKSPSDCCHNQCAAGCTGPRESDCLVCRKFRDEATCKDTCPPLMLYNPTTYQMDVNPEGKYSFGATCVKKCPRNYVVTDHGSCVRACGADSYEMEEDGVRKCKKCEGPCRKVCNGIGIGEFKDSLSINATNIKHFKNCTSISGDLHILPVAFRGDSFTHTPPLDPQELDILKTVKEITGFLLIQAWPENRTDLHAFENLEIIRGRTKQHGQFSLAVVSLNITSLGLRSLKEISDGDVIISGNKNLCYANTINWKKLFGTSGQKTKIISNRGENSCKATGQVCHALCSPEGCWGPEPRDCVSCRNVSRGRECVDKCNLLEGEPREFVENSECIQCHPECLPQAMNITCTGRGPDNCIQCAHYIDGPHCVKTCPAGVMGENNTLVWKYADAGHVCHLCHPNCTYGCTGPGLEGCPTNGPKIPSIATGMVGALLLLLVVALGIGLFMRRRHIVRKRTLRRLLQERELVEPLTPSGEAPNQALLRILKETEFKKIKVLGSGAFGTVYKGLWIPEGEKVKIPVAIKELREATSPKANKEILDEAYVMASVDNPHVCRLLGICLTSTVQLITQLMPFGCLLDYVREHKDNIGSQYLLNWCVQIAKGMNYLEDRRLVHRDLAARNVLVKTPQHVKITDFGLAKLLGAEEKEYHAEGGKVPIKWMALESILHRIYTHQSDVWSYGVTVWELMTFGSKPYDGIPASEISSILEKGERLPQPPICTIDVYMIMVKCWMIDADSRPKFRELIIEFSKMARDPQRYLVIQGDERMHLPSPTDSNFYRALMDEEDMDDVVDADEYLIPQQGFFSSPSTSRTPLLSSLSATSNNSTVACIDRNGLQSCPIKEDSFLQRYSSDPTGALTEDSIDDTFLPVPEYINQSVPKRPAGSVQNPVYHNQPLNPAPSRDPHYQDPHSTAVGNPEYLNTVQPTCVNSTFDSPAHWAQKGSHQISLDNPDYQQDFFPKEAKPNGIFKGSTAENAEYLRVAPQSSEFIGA
EGFR wild type (EGFR WT), sequence (P00533 25-1210): as above
ErbB2 WT, sequence (P04626 23-1255): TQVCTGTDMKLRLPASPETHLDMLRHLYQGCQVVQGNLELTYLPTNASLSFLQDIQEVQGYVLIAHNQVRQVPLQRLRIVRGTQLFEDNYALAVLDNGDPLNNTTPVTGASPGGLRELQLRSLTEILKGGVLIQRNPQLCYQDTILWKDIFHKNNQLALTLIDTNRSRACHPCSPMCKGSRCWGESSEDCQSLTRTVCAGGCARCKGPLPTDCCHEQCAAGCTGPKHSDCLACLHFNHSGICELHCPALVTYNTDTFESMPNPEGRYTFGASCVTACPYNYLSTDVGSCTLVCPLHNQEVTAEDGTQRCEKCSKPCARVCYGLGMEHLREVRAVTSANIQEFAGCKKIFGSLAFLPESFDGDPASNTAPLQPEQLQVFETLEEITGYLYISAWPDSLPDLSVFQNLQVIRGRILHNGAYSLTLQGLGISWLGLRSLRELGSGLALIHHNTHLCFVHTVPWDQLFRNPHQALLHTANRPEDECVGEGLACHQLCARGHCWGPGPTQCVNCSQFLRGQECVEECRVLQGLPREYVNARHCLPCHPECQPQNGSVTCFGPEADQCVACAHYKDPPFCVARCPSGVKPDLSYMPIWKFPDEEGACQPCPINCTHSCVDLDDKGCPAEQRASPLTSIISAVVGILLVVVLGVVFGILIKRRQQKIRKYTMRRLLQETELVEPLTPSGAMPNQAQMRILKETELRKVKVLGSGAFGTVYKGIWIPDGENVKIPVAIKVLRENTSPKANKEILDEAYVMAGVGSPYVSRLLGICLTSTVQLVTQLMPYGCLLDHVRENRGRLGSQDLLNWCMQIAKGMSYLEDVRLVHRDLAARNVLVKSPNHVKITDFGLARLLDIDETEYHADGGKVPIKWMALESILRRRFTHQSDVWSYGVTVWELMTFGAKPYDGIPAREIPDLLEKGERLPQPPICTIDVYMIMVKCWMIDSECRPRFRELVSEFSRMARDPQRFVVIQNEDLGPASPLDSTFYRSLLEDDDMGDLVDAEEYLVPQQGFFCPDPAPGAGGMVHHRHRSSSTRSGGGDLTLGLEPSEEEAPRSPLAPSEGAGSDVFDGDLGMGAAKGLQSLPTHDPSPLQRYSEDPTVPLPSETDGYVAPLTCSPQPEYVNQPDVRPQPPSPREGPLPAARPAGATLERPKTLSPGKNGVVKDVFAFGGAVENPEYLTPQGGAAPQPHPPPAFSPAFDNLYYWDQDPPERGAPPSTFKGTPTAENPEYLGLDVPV
ErbB2 with Exon 20 YVMA insertion (HER2-YVMA), sequence (P04626 other isoform, or with tags, fused parts or gaps ins YVMA behind 775): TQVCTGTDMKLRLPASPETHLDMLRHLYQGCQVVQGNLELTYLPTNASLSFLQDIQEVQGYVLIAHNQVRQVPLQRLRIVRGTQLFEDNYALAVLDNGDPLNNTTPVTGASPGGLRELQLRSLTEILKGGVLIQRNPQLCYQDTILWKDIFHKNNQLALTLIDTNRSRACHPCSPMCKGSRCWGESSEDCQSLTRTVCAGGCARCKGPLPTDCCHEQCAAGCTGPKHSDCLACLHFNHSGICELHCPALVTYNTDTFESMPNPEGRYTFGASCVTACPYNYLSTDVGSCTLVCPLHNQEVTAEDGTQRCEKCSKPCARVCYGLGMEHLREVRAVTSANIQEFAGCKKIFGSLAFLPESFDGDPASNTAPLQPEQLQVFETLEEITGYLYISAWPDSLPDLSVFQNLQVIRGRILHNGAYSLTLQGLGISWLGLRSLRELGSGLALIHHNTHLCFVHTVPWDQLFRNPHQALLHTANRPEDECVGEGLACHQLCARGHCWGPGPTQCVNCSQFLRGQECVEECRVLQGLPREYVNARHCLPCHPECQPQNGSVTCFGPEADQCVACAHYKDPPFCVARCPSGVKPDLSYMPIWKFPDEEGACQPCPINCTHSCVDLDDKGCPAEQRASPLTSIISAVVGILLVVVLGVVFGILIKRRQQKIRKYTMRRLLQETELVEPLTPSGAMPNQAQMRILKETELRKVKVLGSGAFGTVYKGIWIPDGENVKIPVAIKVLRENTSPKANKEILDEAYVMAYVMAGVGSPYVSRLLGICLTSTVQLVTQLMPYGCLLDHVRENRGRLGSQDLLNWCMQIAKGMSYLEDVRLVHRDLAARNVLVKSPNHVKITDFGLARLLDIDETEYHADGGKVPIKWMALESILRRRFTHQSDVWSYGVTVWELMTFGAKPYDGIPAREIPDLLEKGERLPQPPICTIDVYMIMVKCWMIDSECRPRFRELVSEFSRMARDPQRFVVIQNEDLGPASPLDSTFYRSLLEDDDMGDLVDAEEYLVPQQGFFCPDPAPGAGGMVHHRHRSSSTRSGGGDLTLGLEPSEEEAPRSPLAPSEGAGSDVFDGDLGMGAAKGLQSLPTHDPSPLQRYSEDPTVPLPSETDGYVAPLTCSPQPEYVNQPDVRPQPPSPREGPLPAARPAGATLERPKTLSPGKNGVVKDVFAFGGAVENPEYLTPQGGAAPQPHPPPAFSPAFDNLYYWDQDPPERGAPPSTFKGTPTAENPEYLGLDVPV

| Compound | IC50 (EGFR wild type (EGFR WT); [2]) | IC50 (EGFR; EGFR enzyme) | IC50 (ErbB2 WT) | IC50 [1] | IC50 (EGFR wild type (EGFR WT); [3]) | IC50 (EGFR; EGFR enzyme assay) |
| --- | --- | --- | --- | --- | --- | --- |
| C=CC(=O)N1CC[C@H]2CN(c3ccc4ncnc(Nc5ccc(Oc6ccc7c(c6)ncn7C)c(C)c5)c4n3)C[C@H]21 (racemic) [Example 104, rac-1-((3aR,6aR)-5-(4-((3-methyl-4-((1-methyl-1H-benzo[d]imidazol-5-yl)oxy)phenyl)amino)pyrido[3,2-d]pyrimidin-6-yl)hexahydropyrrolo[3,4-b]pyrrol-1(2H)-yl)prop-2-en-1-one] | ≥ 5 µM | ≥ 10 µM |  |  |  |  |
| C=CC(=O)N1C[C@H]2CC[C@@H]1C[C@@H]2c1ccc2ncnc(Nc3cc(C)c(Oc4ccn5ncnc5c4)cc3F)c2n1 (racemic) [Example 216, rac-1-((1R,4S,5S)-5-(4-((4-([1,2,4]triazolo[1,5-a]pyridin-7-yloxy)-2-fluoro-5-methylphenyl)amino)pyrido[3,2-d]pyrimidin-6-yl)-2-azabicyclo[2.2.2]octan-2-yl)prop-2-en-1-one] | ≥ 5 µM | 5 µM |  |  |  |  |
| C=CC(=O)N1CCC(Oc2ccc3ncnc(Nc4ccc(Oc5ccc6sc(C)nc6c5)c(C)c4)c3n2)CC1 [Example 7, 1-(4-((4-((3-methyl-4-((2-methylbenzo[d]thiazol-5-yl)oxy)phenyl)amino)pyrido[3,2-d]pyrimidin-6-yl)oxy)piperidin-1-yl)prop-2-en-1-one] |  | ≥ 10 µM | 2090 nM |  |  |  |
| C=CC(=O)N1CCC(Oc2ccc3ncnc(Nc4ccc(Oc5ccc6sc(C)nc6c5)c(C)c4F)c3n2)CC1 [Example 10, 1-(4-((4-((2-fluoro-3-methyl-4-((2-methylbenzo[d]thiazol-5-yl)oxy)phenyl)amino)pyrido[3,2-d]pyrimidin-6-yl)oxy)piperidin-1-yl)prop-2-en-1-one] |  | ≥ 10 µM | 2400 nM |  |  |  |
| C=CC(=O)Nc1ccc2ncnc(Nc3ccc(Oc4ccc5c(c4)ncn5C)c(C)c3)c2n1 [Example 18, N-(4-((3-methyl-4-((1-methyl-1H-benzo[d]imidazol-5-yl)oxy)phenyl)amino)pyrido[3,2-d]pyrimidin-6-yl)acrylamide] |  | 0.369 µM | 42.3 nM | 443 nM |  |  |
| C=CC(=O)N1CC[C@H]2CN(c3ccc4ncnc(Nc5ccc(Oc6ccn7ncnc7c6)c(C)c5F)c4n3)C[C@H]21 [Example 50, 1-((3aS,6aS)-5-(4-((4-([1,2,4]triazolo[1,5-a]pyridin-7-yloxy)-2-fluoro-3-methylphenyl)amino)pyrido[3,2-d]pyrimidin-6-yl)hexahydropyrrolo[3,4-b]pyrrol-1(2H)-yl)prop-2-en-1-one] | 3.22 µM | ≥ 10 µM |  |  |  |  |
| C=CC(=O)N1CCC(Oc2ccc3ncnc(Nc4ccc(Oc5cnc6cn(C)nc6c5)c(C)c4F)c3n2)CC1 [Example 58, 1-(4-((4-((2-fluoro-3-methyl-4-((2-methyl-2H-pyrazolo[4,3-b]pyridin-6-yl)oxy)phenyl)amino)pyrido[3,2-d]pyrimidin-6-yl)oxy)piperidin-1-yl)prop-2-en-1-one] | 2.23 µM | ≥ 10 µM |  |  |  |  |
| C=CC(=O)N1C2COCC1CC(c1ccc3ncnc(Nc4ccc(Oc5ccc6c(c5)ncn6C)c(C)c4F)c3n1)C2 (centres unmarked) [Example 161, 1-(7-(4-((2-fluoro-3-methyl-4-((1-methyl-1H-benzo[d]imidazol-5-yl)oxy)phenyl)amino)pyrido[3,2-d]pyrimidin-6-yl)-3-oxa-9-azabicyclo[3.3.1]nonan-9-yl)prop-2-en-1-one] | 0.368 µM | 0.57 µM | 19.9 nM |  |  |  |
| C=CC(=O)N1[C@H](C)CN(c2ccc3ncnc(Nc4ccc(Oc5ccn6ncnc6c5)c(C)c4F)c3n2)C[C@@H]1C [Example 264] |  |  |  |  | 4.55 µM | 6.67 µM |
| C=CC(=O)N1C[C@H]2CC[C@@H]1[C@H](c1ccc3ncnc(Nc4cc(C)c(Oc5ccn6ncnc6c5)cc4F)c3n1)C2 [Example 395] |  |  |  |  | ≥ 5 µM | ≥ 10 µM |
| C=CC(=O)N1C[C@H]2CC[C@@H]1[C@@H](c1ccc3ncnc(Nc4cc(C)c(Oc5ccn6ncnc6c5)cc4F)c3n1)C2 [Example 396] |  |  |  |  | ≥ 5 µM | 4.06 µM |
| C=CC(=O)N1C[C@H]2CC[C@@H]1C[C@H]2c1ccc2ncnc(Nc3cc(C)c(Oc4ccn5ncnc5c4)cc3F)c2n1 [Example 402] |  |  |  |  | ≥ 5 µM | 4.94 µM |

Other lines, results leading:

| IC50 (EGFR wild type (EGFR WT); [2]) | IC50 (EGFR; EGFR enzyme) | IC50 (ErbB2 WT) | IC50 [1] | IC50 (EGFR wild type (EGFR WT); [3]) | IC50 (EGFR; EGFR enzyme assay) | Compound |
| --- | --- | --- | --- | --- | --- | --- |
|  | ≥ 10 µM | 10000 nM |  |  |  | C=CC(=O)N1CCC(Oc2ccc3ncnc(Nc4ccc(Oc5ccc6sc(C)nc6c5)c(Cl)c4F)c3n2)CC1 [Example 16, 1-(4-((4-((3-chloro-2-fluoro-4-((2-methylbenzo[d]thiazol-5-yl)oxy)phenyl)amino)pyrido[3,2-d]pyrimidin-6-yl)oxy)piperidin-1-yl)prop-2-en-1-one] |
|  | 0.205 µM | 17.8 nM | 87.8 nM |  |  | CC#CC(=O)Nc1ccc2ncnc(Nc3ccc(Oc4ccc5c(c4)ncn5C)c(C)c3)c2n1 [Example 19, N-(4-((3-methyl-4-((1-methyl-1H-benzo[d]imidazol-5-yl)oxy)phenyl)amino)pyrido[3,2-d]pyrimidin-6-yl)but-2-ynamide] |
| ≥ 5 µM | ≥ 10 µM |  |  |  |  | C=CC(=O)N1CC[C@@H]2CN(c3ccc4ncnc(Nc5ccc(Oc6ccn7ncnc7c6)c(C)c5F)c4n3)C[C@@H]21 [Example 71, 1-((3aR,6aR)-5-(4-((4-([1,2,4]triazolo[1,5-a]pyridin-7-yloxy)-2-fluoro-3-methylphenyl)amino)pyrido[3,2-d]pyrimidin-6-yl)hexahydropyrrolo[3,4-b]pyrrol-1(2H)-yl)prop-2-en-1-one] |
| ≥ 5 µM | ≥ 10 µM |  |  |  |  | C=CC(=O)N1CC[C@@H]2CN(c3ccc4ncnc(Nc5ccc(Oc6ccc7c(c6)ncn7C)c(C)c5)c4n3)C[C@@H]21 [Example 111, 1-((3aR,6aR)-5-(4-((3-methyl-4-((1-methyl-1H-benzo[d]imidazol-5-yl)oxy)phenyl)amino)pyrido[3,2-d]pyrimidin-6-yl)hexahydropyrrolo[3,4-b]pyrrol-1(2H)-yl)prop-2-en-1-one] |
| ≥ 5 µM | ≥ 10 µM |  |  |  |  | C=CC(=O)N1CC[C@H]2CN(c3ccc4ncnc(Nc5ccc(Oc6ccc7c(c6)ncn7C)c(C)c5)c4n3)C[C@H]21 [Example 117, 1-((3aS,6aS)-5-(4-((3-methyl-4-((1-methyl-1H-benzo[d]imidazol-5-yl)oxy)phenyl)amino)pyrido[3,2-d]pyrimidin-6-yl)hexahydropyrrolo[3,4-b]pyrrol-1(2H)-yl)prop-2-en-1-one] |
| ≥ 5 µM | ≥ 10 µM |  |  |  |  | CC#CC(=O)N1CCN(c2ccc3ncnc(Nc4ccc(Oc5ccn6ncnc6c5)c(C)c4F)c3n2)C[C@H]1C [Example 184, (R)-1-(4-(4-((4-([1,2,4]triazolo[1,5-a]pyridin-7-yloxy)-2-fluoro-3-methylphenyl)amino)pyrido[3,2-d]pyrimidin-6-yl)-2-methylpiperazin-1-yl)but-2-yn-1-one] |
|  |  |  |  | ≥ 5 µM | 8.2 µM | C=CC(=O)N1CCN(c2ccc3ncnc(Nc4ccc(Oc5ccn6ncnc6c5)c(C)c4F)c3n2)C[C@@H]1CC [Example 269] |
|  |  |  |  | 0.681 µM | 2.35 µM | C=CC(=O)N1CCN(c2ccc3ncnc(Nc4ccc(Oc5ccn6ncnc6c5)c(C)c4F)c3n2)C[C@H]1CC [Example 274] |
|  |  |  |  | 0.526 µM | 0.895 µM | C=CC(=O)N1CCC12CN(c1ccc3ncnc(Nc4ccc(Oc5ccn6ncnc6c5)c(C)c4F)c3n1)C2 [Example 275] |
|  |  |  |  | ≥ 5 µM | ≥ 10 µM | C=CC(=O)N1CC2(C1)CN(c1ccc3ncnc(Nc4cc(Cl)c(Oc5ccn6ncnc6c5)cc4F)c3n1)C2 [Example 342] |
